The values below come from patent US6939863B2, “Prevention of atherosclerosis and restenosis” (priority 2002, dated 2005).

For data set [1], the system named is rat vascular smooth muscle cells. Particulars: summary table, propylthiouracil; non-contractile to contractile phenotype in vitro.
Data set [2] concerns aortas and femoral arteries of cholesterol-fed rabbits. As to the kind of experiment: Atherosclerotic lesions in rabbits on 2% cholesterol diet (Sudan III, intima/media morphometry, immunohistochemistry). It counts as in vivo, New Zealand White rabbits. Particulars: for Extent of sudanophilic areas / atherosclerosis in the aorta: 0.1% propylthiouracil in drinking water, 12 weeks; for Alpha-smooth muscle actin-positive cells (VSMCs) in atheromas / VSMC/macrophage ratio in atherosclerotic lesions: CHO+PTU versus CHO alone. The procedure: At the end of 12 weeks of study, the rabbits were sacrificed. The aortas (from the ascending aorta to the iliac bifurcation) and femoral arteries were removed, rinsed with phosphate-buffered saline (PBS) and stained with Sudan III, or fixed with 4% paraformaldehyde and paraffin-embedded for hematoxylin-eosin staining or immunohistochemical analysis.
For morphometric studies, up to ten cross sections ([…] and 2 millimeters apart from each other) were prepared from each paraffin-embedded segment of the aorta and femoral arteries. The specimens were stained with hematoxylin and eosin. For each cross section of an arterial specimen, the intimal and medial areas were measured.
For immunohistochemical studies, the arterial sections were deparaffinized, rehydrated and blocked in PBS containing 1% bovine serum albumin and 1% goat serum at room temperature for 30 minutes. The sections were then incubated with mouse monoclonal antibodies against smooth muscle cell alpha-actin (clone 1A4, catalogue number M0851, DAKO Corp., Carpenteria, Calif.) and mouse monoclonal antibodies against rabbit macrophages (clone RAM 11, catalogue number M0633, DAKO Corp., Carpenteria, Calif.) at 4° C. overnight. Subsequently, immunohistochemistry was performed using a commercially available peroxidase-labelled streptavidin-biotin kit (DAKO LSAB peroxidase, catalogue number K0675, DAKO, Carpenteria, Calif.) and 3,3′-diaminobenzidine tetrahydrochloride (DAKO liquid DAB+ substrate-chromagen system, catalogue number K3468, DAKO, Carpenteria, Calif.) according to the procedures provide by manufacturer.

SMILES strings stand for the structures. Entries after “also recorded” stand apart in the source; their conditions may differ.

Regarding `CCCc1cc(=O)[nH]c(=S)[nH]1` [Propylthiouracil, 6-n-propyl-2-thiouracil], the Phenotype change result in data set [1] is recorded as “+”. In addition, the “Extent of sudanophilic areas / atherosclerosis in the aorta” value is given as “markedly less; also recorded: significantly decreased” in data set [2] (2% cholesterol diet) and “markedly less” in data set [2] (2% cholesterol diet, listed as PTU). For the same molecule, the “Alpha-smooth muscle actin-positive cells (VSMCs) in atheromas” value in data set [2] was “significantly fewer”; in data set [2] (listed as PTU), “markedly fewer”. Also, the figures for the “VSMC/macrophage ratio in atherosclerotic lesions” value in data set [2] and in data set [2] (listed as PTU) were “reduce” and “decreased”, respectively. The Intima/media area ratio result in data set [2] (ascending aorta, aortic arch and femoral arteries, 2% cholesterol diet) is “deceased significantly”. In data set [2] (normal chow, Groups 2 and 3, data not shown), the “Visible atherosclerotic lesion in aortas and arteries” value is on record as “no visible atherosclerotic lesion”. Besides, the “TUNEL-positive cells in aortas of rabbits” value in data set [2] (propylthiouracil and cholesterol/propylthiouracil treatment groups) is reported as “absent”.
